According to US6979687B1, “Theophylline-based soluble guanylyl cyclase activators KMUP-1 analogues enhanced cyclic GMP and K+ channel activities on rabbit corpus cavernosum smooth muscle and intercavernous pressure activities” (Cho-Jan Liang, priority 2002, dated 2005):
Where two headings read alike, the source gives them in different places.

What was measured:
[1] = Learning and memory behavioral tasks (Morris water maze, passive inhibitory and active avoidance, rotorod); format: in vivo
Text: Long-term potentiation (LTP) is a potential cellular mechanism underlying learning and memory. Nitric oxide (NO) acts as a retrograde messenger and its downstream effectors are also involved in the modulation of synaptic plasticity in various brain regions such as hippocampus, amygdala, cerebellum, brain stem, cortex etc. Although nitric oxide (NO) is thought to affect synaptic potentiation in various brain regions, the NO-cGMP-PKG pathway involved in memory acquisition in living animals is still unclear. […]. The stimulating parameter which induced long-lasting depression was shifted to a lower frequency by theophylline-based derivative. Furthermore, simultaneous perfusion of theophylline-based derivatives with different concentration of NO donor induced LTP or LTD when the hippocampal slices were stimulated at a frequency as low as 0.02 Hz. The effects of theophylline-based derivative on the behavioral tasks in the following anomal models were examined: Morris water maze, passive inhibitory and active avoidance tests, and rotorod test. […] KMUP-1 injected (1 mg/kg,i.p.) 10 min before the training shortened the escape latency in water maze, increased the retention scores in passive inhibitory avoidance task, decreased the retention time in active avoidance test, and enhanced the motor coorfination in the examination of rotorod. […] YC-1 thus enhanced LTP, learning and memory in an NO-cGMP-PKG-dependent pathway and is a promising drug to enhance learning and memory in human being.

[2] = tested on: rabbit corpus cavernosum smooth muscle; test: Rabbit corpus cavernosum smooth muscle relaxation, organ bath; format: cell-based
Text: (§1) Disruption of endothelium The endothelium lining the lacunar spaces of rabbit corpus cavernosum was disrupted and/or removed by detergent treatment using a modification of a protocol for blood vessels, described elsewhere (kim N. et al., J. Clin. Invest., 88, 112–118, 1991). The intact, isolated penis was placed in a tray containing chilled physiological salt solution (PSS). A 21-guage minicatheter was inserted into each corporal body at the proximal end of the penis. A third minicatheter was inserted into the distal end, below the glans penis, where the right and left corpora communicate. While the distal and one proximal minicatheter were clamped, 3 ml of CHAPS (wt vol.^−) in saline was infused into the remaining proximal catheter. After a short interval (˜20 s), the clamped minicatheters were opened and the preparation was washed by infusion of saline. The corpora cavernosa were then removed and tested for endothelial integrity.
Tissue procurement and organ bath experiments Male rabbits were killed with pentobarbital and their penises excised rapidly and cut longitudinally into equal strips to give 3–6 segments. These segments were incubated in Kerbs-bicarbontate solution (NaCl, 118 mM; NaHCO3, 25 mM; KCl, 4.7 mM; KH2PO4, 1.2 mM; MgSO4, 1.2 mM; glucose, 11 mM; CaCl2, 2.5 mM; pH 7.3–7.4) maintained at 37° C. and aerated with 95% O2 and 5% CO2. Isometric tension was recorded with a force displacement transducer (UGO BASILE, Model 7004, Italy). Rabbit corpus cavernosum smooth muscles were stretched to a resting tension of 2 g and then contracted with phenylephrine (PE, 10 μM). Tissues were also treated with guanethidine (10 μM) to block contractions caused by noradrenaline, released from adrenergic neuron, and treated with atropine (1 μM) to prevent muscarinic effects caused by acetylcholine. When the stable constriction to phenylephrine was reached, concentration-response curves to KMUP-1 (0.001–10 μM) were constructed. Data were expressed as a percentage of the maximum contractile response to phenylephrine. To examine the possible action mechanisms of KMUP-1, the rabbit corpus cavernosum smooth muscles were pretreated with sGC (soluble guanylyl cyclase) inhibitors ODQ (1 μM), a NOS (nitric oxide synthase) inhibitor L-NAME (100 μM), a K^+ channel blocker Tetraethylammonium (TEA, 10 mM), a KATP channel blocker glibenclamide (1 μM), a voltage-dependent K^+ channel blocker 4-AP (100 μM) and Ca^2+-dpendent K^+ channel blockers apamin (1 μM) and charybdotoxin (0.1 μM) for 30 min prior to the addition of KMUP-1. To observe whether the rabbits corpus cavernosum smooth muscle relaxation of KMUP-1 are affected by a nonselective PDE (phosphodiesterase) inhibitor, we investigated the action of KMUP-1 in the presence of IBMX (0.5 μM). In another experiment, rabbit corpus cavernosum smooth muscles were preconstricted with 60 mM KCl. The KCl solution was prepared by substituting NaCl with KCl (60 mM) in an equimolar amount.
as §1, with “(kim” for “(kim N.”, “al.,” for “al., J. Clin. Invest., 88, 112–118,”, “vol.^−1)” for “vol.^−)”, “integrity. […]” for “integrity.”

[3] = tested on: intracavernous pressure of rabbits; conditions: for DT, duration of tumescence / ΔICP, peak increased intracavernous pressure: n=8; for intracavernous pressure, dose dependence: 0.2, 0.4, 0.6 mg kg−1 intracavernous
Method: Measurement of intracavernous pressure Male rabbits were used for the investigation. After sedation with an intramuscular injection of ketamine (10 mg kg^−1), the rabbits were anaesthetized with intraperitoneal pentobarbital (30 mg kg^−1) and maintained with 10 mg kg^−1 if needed. The animals breathed spontaneously. The rabbits were then placed in the supine position, and the body temperature was maintained at 37° C. The femoral artery was cannulated for continuous monitoring of systemic arterial pressure (SAP) and heart rate (HR) via a pressure transducer (Spectramed, Model P10EZ, U.S.A.). Under sterile conditions, the skin overlying the penis was incised and the corpora cavernosum was exposed at the root of the penis. A 25-gunge needle was inserted into the corpus cavernosum smooth muscles for pressure recording. The needle was connected to a three-way stopcock, thus permitting the intracavernous injection of the drugs. The tube was filled with heparinized saline (50 IU 2 h^−1) to prevent clotting.
Normal saline in increasing volumes (0.05, 0.1, 0.2 ml) was injected in four rabbits as a control group. […] In order to minimize the effect of the previous drug, the cavernous body was flushed with 0.2 ml normal saline before each injection and the time interval between each injection was at least 1.5 h.
Measurement of intracavernous pressure Male rabbits were used for the investigation. After sedation with an intramuscular injection of ketamine (10 mg kg^−1), the rabbits were anaesthetized with intraperitoneal pentobarbital (30 mg kg^−1) and maintained with 10 mg kg^−1 if needed. The animals breathed spontaneously. The rabbits were then placed in the supine position, and the body temperature was maintained at 37° C. The femoral artery was cannulated for continuous monitoring of systemic arterial pressure (SAP) and heart rate (HR) via a pressure transducer (Spectramed, Model P10EZ, U.S.A.). Under sterile conditions, the skin overlying the penis was incised and the corpora cavernosum was exposed at the root of the penis. A 25-gunge needle was inserted into the CCSMs for pressure recording. The needle was connected to a three-way stopcock, thus permitting the intracavernous injection of the drugs. The tube was filled with heparinized saline (50 IU 2 h^−1) to prevent clotting.

[4] = tested on: PDE (phosphodiesterase) in human platelets; test: Phosphodiesterase assay, soluble PDE from human platelets, cyclic GMP substrate; format: biochemical; conditions: at 100 μM, n=3
Method: Phosphodiesterase assay. Human platelets were isolated from whole blood using 50 mM Tris-HCl containg 5 mM MgCl2 (pH 7.5) and centrifuged to prepare platelet rich plasma. Washed human platelets were resuspended in 50 mM Tris-HCl containg 5 mM MgCl2 (pH 7.5). Platelets were then disrupted by sonicatio, and soluble PDE preparation was obtained by ultracentrifugation 105000 g for 60 min (4° C). […] After 20 min at 37° C., the samples were heated to 100° C. for 2 min. Ophiophagus Hannah snake venom (10 mg/ml, 10 μl) was then added and incubated at 37 C. for 10 min to convert the 5-GMP to the unchanged nucleosides, guanosine. An ion-exchange resin (200 μl) was added to bind all uncoverted cyclic GMP. After centrifuging, the supernatant was removed for determination in a liquid scintillation counter.

[5] = tested on: rabbit corpus cavernosum smooth muscle cells; test: Intracellular cGMP content in rabbit corpus cavernosum smooth muscle cells; format: cell-based; conditions: for cGMP levels: 0.01–10 μM; for cGMP levels / guanosine 3′,5′-cyclic monophosphate levels: in the presence of IBMX (100 μM); for guanosine 3′,5′-cyclic monophosphate levels: 0.1, 1.0, 10, 100 μM
Method: (§2) Culture of rabbit corpus cavernosum smooth muscle cells Rabbit corpus cavernosum smooth muscles were obtained as sterile surgical specimens, the tissue was washed and cut into 1 to 2 mm pieces and placed into culture dishes with Dulbecco's modified Eagle's medium (DMEM) containing 20% fetal bovine serum (FBS), penicillin (100 U ml^−1), streptomycin (100 U ml^−1) and 2 mM Glutamine. After explants attached to the culture dish, usually 1 to 2 days, DMEM (Dulbecco's modified Eagle's medium) supplement with 10% FBS, penicillin, streptomycin, and glutamine were added. Smooth muscle cells migrated out from the explants in 3–5 days. At this time, the explants were removed, and cells were allowed to achieve confluence. Cells were detached using 0.05% trypsin, 0.02% EDTA at 37° C. for 5 minutes to establish secondary cultures. Cultures were maintained for no more than 4 passages. Cellular homogeneity was further confirmed by the presence of smooth muscle specific α-myosin and α-actin immunoreactivity. Indirect immunofluorescence staining for a variety of antigens was carried out by first plating the cells on chamber slides fixing the cells in 3.7% formaldehyde-phosphate buffered saline for 10 minutes and permeabilizing the cells with phosphate buffered saline 0.1% Triton X-100. Cells were then stained with either a mouse monoclonal antibody directed against the amino terminal 10 amino acids of α-smooth muscle actin and α-myosin (Moreland R. B. et al., J Urol., 153, 826–834, 1995).
Measurement of intracellular guanosine 3′,5′-cyclic monophosphate content Intracellular cGMP concentrations in rabbit corpus cavernosum smooth muscle cells were assayed as our previously described (Wu et al., 2001). In brief, cells were finally grown in 24-well plates (10^5 cells well^−1). […] Incubation was terminated by the addition of 6% trichloroacetic acid (TCA). Cell suspensions were sonicated and then centrifuged at 2500 g for 15 min at 4° C. Then, the supernatants were lyophilized and cGMP of each sample was determined using a commercially available radioimmunoassay kits (Amersham Pharmacia Biotech, Buckinghamshire, England).
as §2, with “Rabbit CCSMs (corpus” for “Rabbit corpus”, “smooth muscles)” for “smooth muscles”, “DMEM” for “DMEM (Dulbecco's modified Eagle's medium)”, “(Moreland” for “(Moreland R. B.”, “al.,” for “al., J Urol., 153, 826–834,”
Measurement of intracellular cyclic GMP content Intracellular cGMP concentrations in rabbit CCSM cells were assayed as our previously described (Wu et al., 2001). In brief, cells were finally grown in 24-well plates (10^5 cells well^−1). […] Incubation was terminated by the addition of 6% trichloroacetic acid (TCA). Cell suspensions were sonicated and then centrifuged at 2500 g for 15 min at 4° C. […]

rabbit aortic rings = test: Relaxation of phenylephrine-precontracted rabbit aortic rings; format: cell-based
[6] = tested on: rabbit aorta smooth muscle cells; test: cGMP levels in rabbit aorta smooth muscle cells; format: cell-based; conditions: for guanosine 3′,5′-cyclic monophosphate levels: 0.1, 1.0, 10, 100 μM, in the presence of IBMX (100 μM)
[7] = 1 mg/kg i.p. 10 min before the training
[8] = in the presence of IBMX (0.5 μM)
[9] = 0.2 mg/kg intracavernous injection
[10] = 0.4 mg/kg intracavernous injection
[11] = 0.6 mg/kg intracavernous injection
[12] = pretreatments with methylene blue (100 μM) and ODQ (10 μM)

Row | Structure (SMILES) | relaxant activities in rabbit CCSMs [2] | effect of combination with IBMX on CCSMs relaxations [2] | −log EC50 of relaxation [2, 8] | DT, duration of tumescence [3, 9] [min] | ΔICP, peak increased intracavernous pressure [3, 9] [mmHg] | DT, duration of tumescence [3, 10] [min] | ΔICP, peak increased intracavernous pressure [3, 10] [mmHg] | DT, duration of tumescence [3, 11] [min] | ΔICP, peak increased intracavernous pressure [3, 11] [mmHg] | intracavernous pressure, dose dependence [3] | inhibition of PDE activity [4] [%] | cGMP levels [5] | guanosine 3′,5′-cyclic monophosphate levels [5] | guanosine 3′,5′-cyclic monophosphate levels [6] | further results
1 | Cn1c(=O)c2c(ncn2CCN2CCN(c3ccccc3Cl)CC2)n(C)c1=O [KMUP-1, 7-[2-[4-(2-chlorophenyl)piperazinyl]-ethyl]-1,3-dimethylxanthine] | concentration-dependent relaxant activities | additive effect | 8.65±0.14 | 15 ± 2.24 | 30 ± 5.25 | 27 ± 2.05 | 55 ± 6.21 | 35 ± 3.45 | 67 ± 12.32 | dose-dependent elevations | 29±3.1 | increased the cGMP levels |  |  | escape latency in water maze [1, 7]: shortened; motor coordination in rotorod [1, 7]: enhanced; retention scores in passive inhibitory avoidance task [1, 7]: increased; retention time in active avoidance test [1, 7]: decreased; retention of passive inhibitory avoidance ([1]; given 30 min after foot-shock): did not affect; relaxation in endothelium-denuded (EC−) corpus cavernosum smooth muscle ([2]; 0.001–10 μM, endothelium-denuded): concentration-dependent relaxations; −log EC50 of relaxation ([2]; after K+ channel blocker TEA (10 mM)): 5.37±0.05; −log EC50 of relaxation ([2]; after KATP channel blocker glibenclamide (1 μM)): 6.57±0.15; −log EC50 of relaxation ([2]; after NOS inhibitor L-NAME (100 μM)): 6.51±0.08; −log EC50 of relaxation ([2]; after apamin (1 μM)): 5.85±0.11; −log EC50 of relaxation ([2]; after charybdotoxin (0.1 μM)): 5.63±0.09; −log EC50 of relaxation ([2]; after sGC inhibitor ODQ (1 μM)): 6.79±0.12; −log EC50 of relaxation ([2]; after voltage-dependent K+ channel blocker 4-AP (100 μM)): 5.83±0.17; relaxation of corpus cavernosum smooth muscle strips ([2]; at 10 μM): completely relaxed; −log EC50 of relaxation ([2]; endothelium-intact (EC+), phenylephrine (10 μM)-precontracted, no blocker): 7.19±0.09; relaxation in the presence of high K+ ([2]; high K+ (60 mM), 0.001–10 μM): great reduction of relaxation; HR (heart rate) ([3]; rabbit, in vivo): unchanged; SAP (systemic arterial pressure) ([3]; rabbit, in vivo): unchanged; cGMP levels after ODQ pretreatment ([5]; pretreatment with ODQ (10 μM)): inhibited
2 | COc1ccccc1N1CCN(CCn2cnc3c2c(=O)n(C)c(=O)n3C)CC1 [KMUP-2, 7-[2-[4-(2-methoxyphenyl)piperazinyl]-ethyl]-1,3-dimethylxanthine] | concentration-dependent relaxant activities | additive effect | 8.37±0.03 |  |  |  |  |  |  |  | 21±2.1 |  | significantly increased | significantly increased | −log EC50 of relaxation ([2]; compound alone, IBMX additive experiment (FIG. 6)): 7.58±0.02; cGMP levels after methylene blue and ODQ pretreatments [5, 12]: significantly inhibited; −log EC50 of relaxation in aortic rings (rabbit aortic rings; KMUP-2 (0.01, 0.05, 0.1 μM) alone): 5.69±0.02; −log EC50 of relaxation in aortic rings (rabbit aortic rings; [8]): 6.61±0.12; cGMP levels after methylene blue and ODQ pretreatments [6, 12]: significantly inhibited
3 | CCCc1nn(C)c2c(=O)[nH]c(-c3cc(S(=O)(=O)N4CCN(C)CC4)ccc3OCC)nc12 [sildenafil, reference compound] |  |  |  | 19 ± 3.32 | 28 ± 3.21 | 24 ± 3.45 | 32 ± 4.05 | 28 ± 4.59 | 40 ± 11.05 | dose-dependent elevations |  | increased the cGMP levels | significant elevation | significant elevation | 
